Assay results as given in PubChem BioAssay AID192 (DTP/NCI, 2004).
“And” between values parts separate entries of the source, which are not always exact repeats. Equal entries are not always repeated. Inconclusive results and toxic doses are left out. How the source made its calls: active means survival T/C of 150% or more; inactive means T/C below 125% in these data.

System: BDF1 mice, B16 melanoma ip, median survival T/C
Assay: NCI In Vivo Anticancer Drug Screen. Data for tumor model B16 Melanoma (intraperitoneal) in B6D2F1 (BDF1) mice
Conditions: endpoint: median survival time, higher = longer survival
Procedure, shortened: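 Tumor-bearing mice received test compound or vehicle. Survival or tumor size was then measured in both groups. The treated-group figure was divided by the control-group figure.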

[1] = dose: 12.5 mg/kg/injection, schedule: Q01DX009 (ip), vehicle: saline
[2] = dose: 25.0 mg/kg/injection, schedule: Q01DX009 (ip), vehicle: saline
[3] = dose: 50.0 mg/kg/injection, schedule: Q01DX009 (ip), vehicle: saline
[4] = dose: 50.0 mg/kg/injection, schedule: Q01DX009 (ip), vehicle: saline with Tween-80
[5] = dose: 100.0 mg/kg/injection, schedule: Q01DX009 (ip), vehicle: saline with Tween-80
[6] = dose: 200.0 mg/kg/injection, schedule: Q01DX009 (ip), vehicle: saline with Tween-80
[7] = dose: 6.25 mg/kg/injection, schedule: Q01DX009 (ip), vehicle: saline
[8] = dose: 25.0 mg/kg/injection, schedule: Q01DX009 (ip), vehicle: saline with Tween-80
[9] = dose: 25.0 mg/kg/injection, schedule: Q01DX009 (ip), vehicle: Klucel (hydroxypropylcellulose) (HPC)
[10] = dose: 50.0 mg/kg/injection, schedule: Q01DX009 (ip), vehicle: Klucel (hydroxypropylcellulose) (HPC)
[11] = dose: 100.0 mg/kg/injection, schedule: Q01DX009 (ip), vehicle: Klucel (hydroxypropylcellulose) (HPC)
[12] = dose: 200.0 mg/kg/injection, schedule: Q01DX009 (ip), vehicle: Klucel (hydroxypropylcellulose) (HPC)
[13] = dose: 400.0 mg/kg/injection, schedule: Q01DX009 (ip), vehicle: Klucel (hydroxypropylcellulose) (HPC)
[14] = dose: 12.5 mg/kg/injection, schedule: Q01DX009 (ip), vehicle: Klucel (hydroxypropylcellulose) (HPC)
[15] = dose: 100.0 mg/kg/injection, schedule: Q01DX009 (ip), vehicle: gum acacia

Measured: T/C

O=C(O)c1c(-c2ccccc2)[nH]c2cc(Cl)ccc2c1=O
inactive: [1] 100 % of control | [2] 102 % of control | [3] 102 % of control | dose: 100.0 mg/kg/injection, schedule: Q04DX003 (ip), vehicle: saline with Tween-80 109 % of control | dose: 200.0 mg/kg/injection, schedule: Q01DX005 (ip), vehicle: saline 95 % of control | dose: 200.0 mg/kg/injection, schedule: Q04DX003 (ip), vehicle: saline with Tween-80 102 % of control

C=C(C)C12OC3(/C=C/C=C/CCCCC)OC1C1C4OC4(CO)C(O)C4(O)C(=O)C(C)=CC4C1(O3)C(C)C2OC(=O)c1ccccc1 (configuration not stated)
inactive: dose: 0.5 micrograms/kg/injection, schedule: Q01DX009 (ip), vehicle: saline 104 % of control | dose: 1.0 micrograms/kg/injection, schedule: Q01DX009 (ip), vehicle: saline 104 % of control | dose: 1.9 micrograms/kg/injection, schedule: Q01DX009 (ip), vehicle: saline 105 % of control | dose: 3.8 micrograms/kg/injection, schedule: Q01DX009 (ip), vehicle: saline 104 % of control | dose: 7.5 micrograms/kg/injection, schedule: Q01DX009 (ip), vehicle: saline 97 % of control | dose: 15.0 micrograms/kg/injection, schedule: Q01DX009 (ip), vehicle: saline 104 % of control | dose: 30.0 micrograms/kg/injection, schedule: Q01DX009 (ip), vehicle: saline 98 % of control

CCN(CC)CC(C)(C)CO
inactive: [4] 99 % of control | [5] 101 % of control | [6] 89 % of control

O=C1CC2(CCCCC2)CO1
inactive: dose: 0.09 mg/kg/injection, schedule: Q01DX009 (ip), vehicle: saline 102 % of control | dose: 0.19 mg/kg/injection, schedule: Q01DX009 (ip), vehicle: saline 95 % of control | dose: 0.39 mg/kg/injection, schedule: Q01DX009 (ip), vehicle: saline 91 % of control | dose: 0.78 mg/kg/injection, schedule: Q01DX009 (ip), vehicle: saline 95 % of control | dose: 1.56 mg/kg/injection, schedule: Q01DX009 (ip), vehicle: saline 95 % of control

[Cl][Pt+2][Cl].[NH-]CCO.[NH-]CCO
inactive: dose: 3.13 mg/kg/injection, schedule: Q01DX009 (ip), vehicle: saline 100 % of control | [7] 104 % of control | [1] 104 % of control

CCC(C)C(CO)c1ccccc1 (configuration not stated)
inactive: [8] 102 % of control | [4] 99 % of control

CN(C)CC(C(=O)c1ccc(Br)cc1)C(Br)c1ccccc1 (configuration not stated)
inactive: dose: 5.0 mg/kg/injection, schedule: Q01DX009 (ip), vehicle: saline with Tween-80 101 % of control | dose: 10.0 mg/kg/injection, schedule: Q01DX009 (ip), vehicle: saline with Tween-80 108 % of control | dose: 20.0 mg/kg/injection, schedule: Q01DX009 (ip), vehicle: saline with Tween-80 101 % of control | dose: 40.0 mg/kg/injection, schedule: Q01DX009 (ip), vehicle: saline with Tween-80 111 % of control

Cc1ccc(Oc2c3c(nc4ccccc24)CCCC3)cc1
inactive: [5] 110 % of control | [6] 107 % of control | dose: 400.0 mg/kg/injection, schedule: Q01DX009 (ip), vehicle: saline with Tween-80 92 % of control

NC(CSCc1ccccc1)C(=O)O (configuration not stated)
inactive: [9] 98 % of control | [10] 106 % of control | [11] 102 % of control | [12] 98 % of control | [13] 117 % of control

C[C@@H]1C[C@@]2(C)[C@@H](CC[C@@H]3[C@@H]2CC[C@]2(C)[C@@H](OC4CCCCO4)CC[C@@H]32)CC1=O (some centres not stated)
inactive: [9] 105 % of control | [10] 100 % of control | [11] 100 % of control

CC(=O)CCN1C(=O)c2ccccc2C1=O
inactive: [14] 96 % of control | [9] 103 % of control | [10] 95 % of control (2×) and 101 % of control | [11] 99 % of control and 102 % of control | [12] 94 % of control and 98 % of control and 112 % of control

CCC(C)C1CCCCC1 (configuration not stated)
inactive: [11] 91 % of control | [12] 108 % of control | [13] 98 % of control

N#CCCc1ccc(O)cc1
inactive: dose: 50.0 mg/kg/injection, schedule: Q01DX009 (ip), vehicle: gum acacia 100 % of control | dose: 50.0 mg/kg/injection, schedule: Q04DX003 (ip), vehicle: gum acacia 100 % of control | [15] 89 % of control | dose: 100.0 mg/kg/injection, schedule: Q04DX003 (ip), vehicle: gum acacia 106 % of control | dose: 200.0 mg/kg/injection, schedule: Q01DX009 (ip), vehicle: gum acacia 91 % of control | dose: 200.0 mg/kg/injection, schedule: Q04DX003 (ip), vehicle: gum acacia 95 % of control

CCS/C(SC)=C(/c1ccccc1)[P+](c1ccccc1)(c1ccccc1)c1ccccc1
inactive: dose: 0.19 mg/kg/injection, schedule: Q01DX009 (ip), vehicle: Klucel (hydroxypropylcellulose) (HPC) 99 % of control | dose: 0.38 mg/kg/injection, schedule: Q01DX009 (ip), vehicle: Klucel (hydroxypropylcellulose) (HPC) 99 % of control | dose: 0.75 mg/kg/injection, schedule: Q01DX009 (ip), vehicle: Klucel (hydroxypropylcellulose) (HPC) 100 % of control | dose: 1.5 mg/kg/injection, schedule: Q01DX009 (ip), vehicle: Klucel (hydroxypropylcellulose) (HPC) 95 % of control and 106 % of control

O=C(Nc1ccc(Cl)cc1)Nc1ccccc1Cl
inactive: dose: 4.5 mg/kg/injection, schedule: Q01DX009 (ip), vehicle: gum acacia 102 % of control | dose: 9.0 mg/kg/injection, schedule: Q01DX009 (ip), vehicle: gum acacia 97 % of control | dose: 18.0 mg/kg/injection, schedule: Q01DX009 (ip), vehicle: gum acacia 90 % of control | [15] 89 % of control

O=C(CCl)N1CCC2(CC1)SSC1(CCN(C(=O)CCl)CC1)S2
inactive: dose: 12.5 mg/kg/injection, schedule: Q01DX009 (ip), vehicle: saline with Tween-80 100 % of control | [8] 90 % of control

CCCCC/C(C)=N\Nc1ccccn1
inactive: dose: 12.5 mg/kg/injection, schedule: Q01DX009 (ip), vehicle: saline sonified 106 % of control | dose: 25.0 mg/kg/injection, schedule: Q01DX009 (ip), vehicle: saline sonified 100 % of control | dose: 50.0 mg/kg/injection, schedule: Q01DX009 (ip), vehicle: saline sonified 102 % of control | dose: 100.0 mg/kg/injection, schedule: Q01DX009 (ip), vehicle: saline sonified 100 % of control

CCC(=O)NC(CC(C)C)C(=O)NC(CC(C)C)C(=O)NC(C=O)CCCN=C(N)N (configuration not stated) (tested in a mixture with another compound)
inactive: [1] 100 % of control and 105 % of control | [2] 94 % of control and 105 % of control | [3] 99 % of control and 105 % of control | dose: 100.0 mg/kg/injection, schedule: Q01DX009 (ip), vehicle: saline 108 % of control and 120 % of control

C=CCOCC(O)CNCCCOC (configuration not stated)
inactive: [7] 102 % of control | [1] 98 % of control | [2] 98 % of control

Cc1ccc(CNc2ccc(C)cc2)cc1
inactive: [11] 100 % of control | [12] 100 % of control

CCCCCCCCCCCCCCCC(C)(C)O
inactive: [11] 100 % of control | [12] 100 % of control | [13] 86 % of control

O=C(Nc1ccccc1)N(Cc1ccccc1)c1ccccc1
inactive: dose: 50.0 mg/kg/injection, schedule: Q04DX009 (ip), vehicle: Klucel (hydroxypropylcellulose) (HPC) 104 % of control | dose: 100.0 mg/kg/injection, schedule: Q04DX009 (ip), vehicle: Klucel (hydroxypropylcellulose) (HPC) 104 % of control | dose: 200.0 mg/kg/injection, schedule: Q04DX003 (ip), vehicle: carboxymethylcellulose (CMC) 105 % of control | dose: 200.0 mg/kg/injection, schedule: Q04DX009 (ip), vehicle: Klucel (hydroxypropylcellulose) (HPC) 93 % of control

Cc1cc(=O)c2c(o1)-c1c(cc(O)c(O)c1C(=O)O)OC2
inactive: [14] 101 % of control | [9] 105 % of control | [10] 105 % of control | [11] 102 % of control | [12] 106 % of control

O=C(CCl)N1c2ccccc2Sc2ccc(Cl)cc21
inactive: dose: 6.25 mg/kg/injection, schedule: Q01DX009 (ip), vehicle: other 107 % of control | dose: 12.5 mg/kg/injection, schedule: Q01DX009 (ip), vehicle: other 100 % of control | dose: 25.0 mg/kg/injection, schedule: Q01DX009 (ip), vehicle: other 100 % of control | dose: 50.0 mg/kg/injection, schedule: Q01DX009 (ip), vehicle: other 94 % of control | dose: 100.0 mg/kg/injection, schedule: Q01DX009 (ip), vehicle: other 87 % of control

CCOc1ccccc1NC(=O)CC(C)=O
inactive: [11] 100 % of control | [12] 97 % of control
